Experimental data taken from patent publication US10251835B2, “Cranial delivery of pharmaceuticals” (GLIA, LLC, priority 2013, dated 2019).
“Also recorded” adds a separate entry of the source.

Tests used:
[1] = tested on: subject with left-side trigeminal neuralgia and facial droop; experiment: Treatment of trigeminal neuralgia and facial palsy; assay type: in vivo, human; details: progesterone 1% (1 mg) four times daily to forehead followed by 0.15 g ganciclovir (0.15% formulation) up to five times daily
Procedure: A subject presented with left-side trigeminal neuralgia and left side facial droop of 10 years duration. Therapy was initiated by topically applying progesterone (1% by weight) equivalent to 1 mg four times daily to the patient's forehead. This was followed by application of 0.15 g ganciclovir (as a 0.15% by weight formulation) up to five times daily.

[2] = tested on: patient with corneal Herpes zoster; experiment: Treatment of herpetic keratitis; assay type: in vivo, human; details: for intraocular pressure: ganciclovir gel plus progesterone to forehead
Description: A person suffered a first onset of active corneal Herpes zoster. They presented with classic Herpes Zoster symptoms including, left hemisphere unilateral skin lesions on forehead, bridge of nose area and down the nose not including the tip; left cornea dendrites, keratitis and edema; loss of functional vision, elevated intraocular pressure as high as 42 mm Hg, conjunctival irritation and redness and anesthetic cornea. There were also general body flu symptoms.
The patient was initially treated with ophthalmic prednisolone acetate 1% up to 5 times daily, ophthalmic antibiotics, non-prescription ophthalmic wetting agents, and lubrication with gels administered to the eye. Additional drug therapies included systemic oral valcyclovir as high as 2 g per day and medications to reduce intraocular pressure.
Despite the therapy, symptom flare-up was as frequent as 2 weeks to 1 month over the past 10 years. Although intraocular pressure returned to within the normal range, cataracts formed as a result of long term use of corticosteroids.
The cornea surface contour became increasingly distorted with prominent ridges. There was incursion of capillaries across the conjunctiva into the cornea, both superficially and deep. Deposition of phospholipids through a leaching process occluded the cornea with grey color deposits on about 50% of its surface.
Corneal thinning had progressed to near perforation levels which required preparation for corneal patch surgery.
At this point, 1% topical progesterone (approximately 1 mg of progesterone) was first administered as a method to keep the cornea from perforating and the tear film intact. The drug was applied to the forehead 4 times daily together with topical antibiotics and corticosteroids.
After stabilizing the cornea, antiviral treatment was begun with ganciclovir gel (0.15%; 0.15 mg of drug) applied five times daily to the forehead together with once daily progesterone (1%; 1 mg of drug) and a nightly drop of ophthalmic antibiotic. Intraocular pressure measured at the onset of ganciclovir treatment was 18 mm Hg.
The patient reported a decrease in eye strain as a result of an improvement in tear film. […] Over the next two weeks, inflammation was further reduced and visual acuity increased somewhat when the head was tilted back. During the first full month of treatment, the affected eye generally felt comfortable. There was a lack of inflammation, and some vision returned to the threshold of functionality. Intraocular pressure remained normal in the range of 16 mm Hg.
There was modest improvement in reading the eye chart, and corneal staining due to defects was minimized. Intraocular pressure remained normal in both eyes at about 16 mm Hg during this period. The phospholipid deposits further reduced in density and began to give the appearance of lesser areas of concentrations. Nearly functional vision could be achieved by positioning the head back and viewing through the central cornea. The residual clear area of the cornea became more so and less inflamed. Through the end of the second month, improvement to the cornea accelerated. The pupil was now clearly visible and more light was entering the eye.
The patient was examined regularly by an ophthalmologist, and after three and one half months of treatment. The intraocular pressure was normal at 12 mm Hg. […] Intraocular pressure has remained in the same range for more than one year.

[3] = tested on: patients with ocular discomfort resulting from dry eye; experiment: Treatment of dry eye with topical progesterone applied cranially; assay type: in vivo, human
Procedure: Twenty-seven patients diagnosed with ocular discomfort resulting from dry eye were treated with topical progesterone (0.5%-1% by weight, corresponding to approximately 1-4 mg progesterone per application) applied to the forehead either once or twice per day.
A summary of clinical results is shown below in Table 2.

[4] = tested on: person with blepharospasm; experiment: Treatment of blepharospasm; assay type: in vivo, human; details: fourteen days of 1% progesterone gel to forehead; before treatment 73
Description: Upon ophthalmic re-examination following fourteen days of 1% progesterone gel applied topically to the forehead, the blink rate had decreased to 18 times per minute.

[5] = tested on: male and female with cyclosporine-induced eye irritation; experiment: Treatment of drug-induced eye irritation; assay type: in vivo, human; details: 1% progesterone to forehead after cleaning off drug residual; within two minutes
Description: Ten minutes later, drug residual was cleaned off from the forehead, and 1% progesterone was applied.

[6] = tested on: dogs with mucus discharge from the eyes; experiment: Treatment of dry eye in domestic animals; assay type: in vivo, dog
Description: A puggle presented with mucus discharge from the eyes. […] The owner reported that the dog has this problem spring and fall, which indicates it is allergic seasonal rhinitis. The reported use took place in the fall.
A bulldog diagnosed with Sjogren's syndrome had mucus discharge from the eyes.

[7] = tested on: post-surgical patients on glaucoma medication; experiment: Treatment of ocular discomfort and redness in post-surgical patients and patients on glaucoma medication; assay type: in vivo, human; details: 1% progesterone to forehead, three times daily or 2-3 times then once a day
Description: A […] […] had four eye surgeries and was being treated with two glaucoma eye drops (dorzolamide-timolol combination and travaprost) together with a lubricating eye gel twice a day.
A […] […] had multiple surgeries and was diagnosed with Fuch's corneal dystrophy and narrow angle glaucoma. Prior to the latest surgery, when they were almost legally blind, they started applying to their forehead 1% progesterone 2-3 times a day, then reduced the application frequency to once a day.

[8] = tested on: females with wrist fracture pain or wrist arthritis; experiment: Treatment of pain; assay type: in vivo, human; details: person
Description: A person suffered a wrist fracture of the left distal radius and ulnar styloid, with subsequent severe pain.
A person was diagnosed 10 years ago with arthritis in their right wrist, with pain, weakness, and limited motion in the hand and wrist. […] The condition has worsened since they were first diagnosed. The individual is being treated with regular steroid injections. […] They are able to twist open tightly closed containers. Additionally, bone snapping sounds and feelings are no longer present.

[9] = tested on: patient with corneal Herpes zoster; experiment: Treatment of herpetic keratitis; assay type: in vivo, human; details: one year, 1 mg progesterone to forehead 2 or 3 times a day, no other drugs
[10] = tested on: patients with ocular discomfort resulting from dry eye; experiment: Treatment of dry eye with topical progesterone applied cranially; assay type: in vivo, human; remark: listed apart in the source

## CC(=O)[C@H]1CC[C@H]2[C@@H]3CCC4=CC(=O)CC[C@]4(C)[C@H]3CC[C@]12C [progesterone]
[1]
  facial muscles contracted for 10 years: relaxation of facial muscles
[2]; 1% progesterone (about 1 mg) to forehead 4 times daily together with topical antibiotics and corticosteroids
  corneal deterioration: Further corneal deterioration was halted
[2]; ganciclovir gel 0.15% (0.15 mg) five times daily plus progesterone 1% (1 mg) once daily to forehead, nightly ophthalmic antibiotic, 1 week to 3.5 months
  inflammation, visual acuity and state of affected eye: less inflammation and a slight improvement in visual acuity; also recorded: some functional vision was attained; also recorded: stable and normalizing
[2]; after three and one half months
  intraocular pressure: 12 mm Hg
[2]; both eyes, examination period up to third month
  intraocular pressure: about 16 mm Hg
[2]; first full month of treatment
  intraocular pressure: ~16 mm Hg
[3]; 0.5-1% on the forehead, once daily
  Results: After prolonged use, no longer requires; also recorded: Eyes moist and tearing minutes after; also recorded: application. Stopped all auxiliary eye
[3]; 1% progesterone ON
  Results: Equally effective. Uses nightly once a day
[3]; progesterone 0.5%-1% (about 1-4 mg per application) to forehead once or twice per day
  overall clinical result in twenty-seven dry eye patients: Improvement was seen in all cases; also recorded: Most patients were able to discontinue previous therapy
[3]; subject 4, 1% progesterone
  time until moisture felt: moisture felt after 10 minutes; after weeks
[4]
  blink rate: 18 times per minute
[5]
  relief of cyclosporine-induced irritation and stinging: irritation and stinging began to dissipate
[6]; progesterone to the dog's forehead (puggle; bulldog with Sjogren's syndrome)
  time to effect on mucus discharge from the eyes: ≤ 24 h
[6]; progesterone topical forehead treatment, daily
  mucus discharge from the eyes: the problem no longer recurred; also recorded: cessation of mucus discharge
[7]
  ocular discomfort, redness and need for lubricating drops: able to stop using the lubricating drops; also recorded: Redness also disappeared; also recorded: helped to ease irritation, lid sticking and redness
[8]; arthritis, five days after applying 1% progesterone to forehead
  wrist pain, mobility and strength: significantly less wrist pain and increased mobility and strength
[8]; wrist fracture, approximately 4 mg progesterone to forehead
  time to significant decrease in pain: ≤ 15 min
[9]
  corneal perforation: the cornea remained unperforated
[10]; 1% progesterone TID
  Results: Stopped using lubricating drops. Redness,; also recorded: itching and scaly eyelids disappeared
[10]; subject 18, 1% progesterone 2-3 times/day, increased from 2
  TBUT: TBUT increased from 2 to 8. Long term
